This passage reports IC50 and IC90 results from PubChem BioAssay AID434987 (Southern Research Specialized Biocontainment Screening …, 2010).

SMILES strings stand for the structures. Active and inactive are the calls of the source. The rule behind the calls is not given here. Some results are limits rather than exact numbers.

This test relates to M. tuberculosis H37Rv growth inhibition with meropenem. As to the kind of experiment: dose response, H37Rv, with and without meropenem (AID 434987).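 Note: growth over 7 days at 37 °C before Alamar Blue read on day 9.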
Setting [1] is: M. tuberculosis H37Rv growth inhibition, measured here: IC50 without meropenem.
[2] abbreviates: M. tuberculosis H37Rv growth inhibition, measured here: IC90 without meropenem.
Where [3] appears, read: measured here: IC90 with meropenem.

With `CSc1ccc(CCNC(=O)c2cc(C)nn2-c2ccccc2)cc1`, the IC50 is > 100 µM (inactive). The IC50 under setting [1] is more than 100 µM. Under setting [2], this compound gave an IC90 of more than 100 µM. The IC90 under setting [3] was more than 100 µM.

For the compound `Cc1n[nH]c(C)c1CCCOc1ccccc1`, the IC50 is 24.1 µM (inactive). This compound had an IC50 under setting [1] of 39.5 µM. This compound also came in with an IC90 under setting [2] of more than 100 µM. The IC90 under setting [3] is more than 100 µM.

On to `O=C(NC1CCCCCCC1)c1ccc(Br)cc1`, for which the IC50 is > 100 µM (inactive). Further, under setting [1], the IC50 is more than 100 µM. Also, under setting [2], the IC90 is more than 100 µM. The same compound yielded an IC90 under setting [3] of more than 100 µM.

As to `Cc1cc(C)c2oc(-c3ccc(Cl)c(NC(=O)c4ccc(C#N)cc4F)c3)nc2c1`, the IC50 is > 100 µM (inactive). Under setting [1], this compound showed an IC50 of more than 100 µM. In addition, the IC90 under setting [2] is more than 100 µM. The same compound had an IC90 under setting [3] of more than 100 µM.

On to `COc1cccc(-n2c([S-])c(C(=O)Nc3ccc(S(=O)(=O)N4CCOCC4)cc3)[n+]3cc(C(N)=O)ccc23)c1`, for which the IC50 is > 100 µM (inactive). Also, the IC50 under setting [1] was more than 100 µM. Further, the IC90 under setting [2] was more than 100 µM. Besides, the IC90 under setting [3] was more than 100 µM.

For the compound `Cc1ccc(OCC(=O)Nc2ccc3c4c(cccc24)CC3)c(C)c1`, the IC50 is 1.71 µM. Also, the IC50 under setting [1] was more than 100 µM. Also, the 90% effect concentration (IC90) under setting [2] is more than 100 µM. The IC90 under setting [3] was more than 100 µM.

For the compound `CN(C(=O)Nc1ccc(Cl)cc1)n1cnc2ccccc2c1=O`, the IC50 is 44.9 µM (inactive). The IC50 under setting [1] was 95.9 µM. Moreover, the IC90 under setting [2] was more than 100 µM. Moreover, the IC90 under setting [3] is 48.6 µM.

With `O=C(N/N=C\c1cn[nH]c1-c1ccc(Cl)cc1)c1cccs1`, the IC50 was > 100 µM (inactive). Further, the IC50 under setting [1] is more than 100 µM. Moreover, under setting [2], the IC90 is more than 100 µM. This compound had an IC90 under setting [3] of more than 100 µM.

For `CCCC(=O)Nc1ccc(NC(=S)NC(=O)c2cccs2)cc1`, the IC50 was > 100 µM (inactive). Also, under setting [1], the IC50 was more than 100 µM. Under setting [2], this compound showed an IC90 of more than 100 µM. Besides, the IC90 under setting [3] was more than 100 µM.

`O=C(Nc1nc(-c2ccc3c(c2)OCCO3)cs1)c1ccc(S(=O)(=O)N2CCCCC2)cc1`: the IC50 is > 100 µM (inactive). This compound had an IC50 under setting [1] of more than 100 µM. In addition, the IC90 under setting [2] is more than 100 µM. The compound further had an IC90 under setting [3] of more than 100 µM.

As for `C/C(=N/NC(=O)c1ccc(Cl)s1)c1ccc(NC(=O)COc2ccc(Cl)cc2)cc1`, the IC50 was > 100 µM (inactive). Further, the IC50 under setting [1] was more than 100 µM. The IC90 under setting [2] is more than 100 µM. This compound yielded an IC90 under setting [3] of more than 100 µM.

On to `O=C(CCN1c2ccccc2Sc2ccccc21)Oc1ccccc1`, for which the IC50 is 8.48 µM. Under setting [1], the IC50 was more than 100 µM. Besides, the IC90 under setting [2] was more than 100 µM. Under setting [3], this compound came in with an IC90 of more than 100 µM.

Turning to `CC1(C)CCN2CCC(C)(C)c3c(O)ccc1c32`, the IC50 was 34.7 µM (inactive). Moreover, under setting [1], the IC50 was 47.1 µM. For the same compound, the 90% effect concentration (IC90) under setting [2] was found to be 53 µM. The same compound showed an IC90 under setting [3] of 49.3 µM.

With `Cc1ccc(C)c(NC(=O)C(Sc2nc3ccccc3c(=O)n2CC(C)C)c2ccccc2)c1` (stereo not drawn), the IC50 is 58.8 µM (inactive). Under setting [1], this compound displayed an IC50 of more than 100 µM. The IC90 under setting [2] is more than 100 µM. Moreover, the IC90 under setting [3] was more than 100 µM.

In the case of `COc1ccc(-c2csc(/C=C/c3ccc4c(c3)OCO4)n2)cc1OC`, the IC50 was 16.1 µM. Further, the IC50 under setting [1] is more than 100 µM. The IC90 under setting [2] was more than 100 µM. The compound further returned an IC90 under setting [3] of more than 100 µM.

Turning to `CCCCCn1c(=O)c(C(=O)NCc2ccncc2)c(O)c2ccccc21`, the IC50 is 35.3 µM (inactive). The IC50 under setting [1] worked out at 81.4 µM. Also, the IC90 under setting [2] is more than 100 µM. This compound gave an IC90 under setting [3] of more than 100 µM.

In the case of `COc1cc(NC(=O)c2ccccc2)c(OC)cc1NC(=O)CN1CCOCC1`, the IC50 was 14.5 µM (inactive). Besides, under setting [1], the IC50 worked out at 32.1 µM. For the same compound, the IC90 under setting [2] was more than 100 µM. Besides, the IC90 under setting [3] was determined as 69.2 µM.

Regarding `CCc1cc2c(=O)nc3n(c2s1)Cc1ccccc1/C3=C(/O)c1ccc(F)cc1`, the IC50 is > 100 µM (inactive). Moreover, the IC50 under setting [1] was more than 100 µM. Under setting [2], this compound registered an IC90 of more than 100 µM. In addition, the IC90 under setting [3] is more than 100 µM.

As to `O=c1c2c3n(c(=S)nc2[nH]n1-c1ccccc1)CCCCC3`, the IC50 was 12.4 µM (inactive). The IC50 under setting [1] was 27.1 µM. Further, under setting [2], the IC90 was more than 100 µM. For the same compound, the IC90 under setting [3] came out at 13.3 µM.

As for `C/C(=N/NC(=O)c1ccccn1)c1ccncc1`, the IC50 is 9.52 µM. This compound also showed an IC50 under setting [1] of 31.8 µM. Besides, the IC90 under setting [2] is more than 100 µM. Moreover, under setting [3], the IC90 was determined as 23.1 µM.

`CC1(C)CC(=O)c2cc(C(=O)NCc3ccco3)c(=O)n(-c3ccccc3)c2C1`: the IC50 was > 100 µM (inactive). Under setting [1], the IC50 was more than 100 µM. The compound also showed an IC90 under setting [2] of more than 100 µM. Also, under setting [3], the IC90 is more than 100 µM.

On to `C[C@H]1C=CC(=O)O[C@H]1c1ccccc1`, for which the IC50 was 21 µM (inactive). The compound also came in with an IC50 under setting [1] of 43.7 µM. The IC90 under setting [2] is 60.6 µM. The IC90 under setting [3] stood at 49.5 µM.

Broadly, the IC50 is the point on the concentration scale where inhibition reaches its midpoint. As usually defined, the IC90 is the point of the concentration-response curve where the effect stands at 90%.
